Source: the supplement of paper PMC11061612

Key:
Assay in all cases: combination Emax (second highest fraction inhibited in the dose matrix, 72 h); higher = more inhibition; extreme values may be limits of the assay
[1] = tested on: OE33 (Esophageal Adenocarcinoma)
Summary of the method: (§1)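 Bliss excess equals the observed combination effect minus the expected value EA + EB − EA·EB, where EA and EB are the effects of each agent alone. Combination Emax is the second-highest inhibition within the matrix. Inhibition was scaled from CellTiter-Glo 2.0 luminescence, with 0 set by vehicle wells and 1 by blank wells, after 72 hours of two-drug dosing of cells plated in 1536-well plates.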

[2] = tested on: HAL-01 (B-Lymphoblastic Leukemia)
Summary of the method: as §1

[3] = tested on: ALL-SIL (T-Lymphoblastic Leukemia)
Summary of the method: as §1

[4] = tested on: MOG-G-UVW (Low Grade Glioma)
Summary of the method: as §1

Compound	combination Emax [1]	combination Emax [2]	combination Emax [3]	combination Emax [4]
COc1cccc(OCCCN)c1-c1cc(Nc2cnc(C#N)cn2)n[nH]1 [Prexasertib] + O=C(c1cc(Cc2n[nH]c(=O)c3ccccc23)ccc1F)N1CCN(C(=O)C2CC2)CC1 [Olaparib] (first compound max 1 µM, 7x7, partner max 10 µM)	0.691	1	0.992	0.926
CCc1c2c(nc3ccc(O)cc13)-c1cc3c(c(=O)n1C2)COC(=O)[C@]3(O)CC [SN-38] + CN(C)CCCOc1ccc(-c2ccc3ncc4c(c3c2)n(C2CCOCC2)c(=O)n4C)cn1 [AZD0156] (first compound max 0.3 µM, 7x7, partner max 1 µM)	0.642	1	0.995	0.854
CCc1c2c(nc3ccc(O)cc13)-c1cc3c(c(=O)n1C2)COC(=O)[C@]3(O)CC [SN-38] + O=C(c1cc(Cc2n[nH]c(=O)c3ccccc23)ccc1F)N1CCN(C(=O)C2CC2)CC1 [Olaparib] (first compound max 0.3 µM, 7x7, partner max 10 µM)	0.587	1	1	0.825
Cn1cnc2c(F)c(Nc3ccc(Br)cc3Cl)c(C(=O)NOCCO)cc21 [Selumetinib] + C=CCn1c(=O)c2cnc(Nc3ccc(N4CCN(C)CC4)cc3)nc2n1-c1cccc(C(C)(C)O)n1 [AZD1775] (first compound max 10 µM, partner max 1 µM)	0.445	0.876	0.881	0.72
Cn1cnc2c(F)c(Nc3ccc(Br)cc3Cl)c(C(=O)NOCCO)cc21 [Selumetinib] + CC(C)n1c(=O)n(C)c2cnc3cc(F)c(-c4ccc(OCCCN5CCCCC5)nc4)cc3c21 [AZD1390] (first compound max 10 µM, 7x7, partner max 0.3 µM)	0.265	0.48	0.25	0.346
Cn1cnc2c(F)c(Nc3ccc(Br)cc3Cl)c(C(=O)NOCCO)cc21 [Selumetinib] + CCN(CCO)CCCOc1ccc2c(Nc3cc(CC(=O)Nc4cccc(F)c4)[nH]n3)ncnc2c1 [AZD2811] (first compound max 10 µM, 7x7, partner max 1 µM)	0.364	0.441	0.961	0.642
Cn1cnc2c(F)c(Nc3ccc(Br)cc3Cl)c(C(=O)NOCCO)cc21 [Selumetinib] + C[C@@H]1COCCN1C2=NC(=NC(=C2)C3(CC3)[S@](=N)(=O)C)C4=C5C=CNC5=NC=C4 [AZD6738] (first compound max 10 µM, 7x7, partner max 10 µM)	0.775	0.976	0.934	0.691
CC(=O)Nc1cccc(-n2c(=O)n(C3CC3)c(=O)c3c(Nc4ccc(I)cc4F)n(C)c(=O)c(C)c32)c1 [Trametinib] + Cc1nc(-c2cn3c(n2)-c2ccc(-c4cnn(C(C)(C)C(N)=O)c4)cc2OCC3)n(C(C)C)n1 [Taselisib] (first compound max 1 µM, 7x7, partner max 10 µM)	0.84	0.687	0.831	0.955
CC1(C)CCC(CN2CCN(c3ccc(C(=O)NS(=O)(=O)c4ccc(NCC5CCOCC5)c([N+](=O)[O-])c4)c(Oc4cnc5[nH]ccc5c4)c3)CC2)=C(c2ccc(Cl)cc2)C1 [Venetoclax] + C1CN(CCC1(C(=O)N[C@@H](CCO)C2=CC=C(C=C2)Cl)N)C3=NC=NC4=C3C=CN4 [Capivasertib] (first compound max 1 µM, 7x7, partner max 3 µM)	0.184	0.916	0.687	0.455
CC1(C)CCC(CN2CCN(c3ccc(C(=O)NS(=O)(=O)c4ccc(NCC5CCOCC5)c([N+](=O)[O-])c4)c(Oc4cnc5[nH]ccc5c4)c3)CC2)=C(c2ccc(Cl)cc2)C1 [Venetoclax] + C=CCn1c(=O)c2cnc(Nc3ccc(N4CCN(C)CC4)cc3)nc2n1-c1cccc(C(C)(C)O)n1 [AZD1775] (first compound max 1 µM, partner max 1 µM)	0.623	1	1	0.933
CC1(C)CCC(CN2CCN(c3ccc(C(=O)NS(=O)(=O)c4ccc(NCC5CCOCC5)c([N+](=O)[O-])c4)c(Oc4cnc5[nH]ccc5c4)c3)CC2)=C(c2ccc(Cl)cc2)C1 [Venetoclax] + CCN(CCO)CCCOc1ccc2c(Nc3cc(CC(=O)Nc4cccc(F)c4)[nH]n3)ncnc2c1 [AZD2811] (first compound max 1 µM, 7x7, partner max 1 µM)	0.174	0.959	1	0.636
CC1(C)CCC(CN2CCN(c3ccc(C(=O)NS(=O)(=O)c4ccc(NCC5CCOCC5)c([N+](=O)[O-])c4)c(Oc4cnc5[nH]ccc5c4)c3)CC2)=C(c2ccc(Cl)cc2)C1 [Venetoclax] + CN(C)CCCOc1ccc(-c2ccc3ncc4c(c3c2)n(C2CCOCC2)c(=O)n4C)cn1 [AZD0156] (first compound max 1 µM, 7x7, partner max 1 µM)	0.219	0.936	0.628	0.726
CC1(C)CCC(CN2CCN(c3ccc(C(=O)NS(=O)(=O)c4ccc(NCC5CCOCC5)c([N+](=O)[O-])c4)c(Oc4cnc5[nH]ccc5c4)c3)CC2)=C(c2ccc(Cl)cc2)C1 [Venetoclax] + COc1cc(Nc2ncc3c(n2)-c2ccc(Cl)cc2C(c2c(F)cccc2OC)=NC3)ccc1C(=O)O [Alisertib] (first compound max 1 µM, 7x7, partner max 10 µM)	0.314	1	1	0.722
CC1(C)CCC(CN2CCN(c3ccc(C(=O)NS(=O)(=O)c4ccc(NCC5CCOCC5)c([N+](=O)[O-])c4)c(Oc4cnc5[nH]ccc5c4)c3)CC2)=C(c2ccc(Cl)cc2)C1 [Venetoclax] + C[C@@H]1COCCN1C2=NC(=NC(=C2)C3(CC3)[S@](=N)(=O)C)C4=C5C=CNC5=NC=C4 [AZD6738] (first compound max 1 µM, 7x7, partner max 10 µM)	0.773	1	1	0.852
CC1(C)CCC(CN2CCN(c3ccc(C(=O)NS(=O)(=O)c4ccc(NCC5CCOCC5)c([N+](=O)[O-])c4)c(Oc4cnc5[nH]ccc5c4)c3)CC2)=C(c2ccc(Cl)cc2)C1 [Venetoclax] + C[C@@H](Nc1cc(F)cc(F)c1)c1cc(C(=O)N(C)C)cc2c(=O)cc(N3CCOCC3)oc12 [AZD8186] (first compound max 1 µM, 7x7, partner max 3 µM)	0.211	0.988	0.637	0.45
CC1(C)CCC(CN2CCN(c3ccc(C(=O)NS(=O)(=O)c4ccc(NCC5CCOCC5)c([N+](=O)[O-])c4)c(Oc4cnc5[nH]ccc5c4)c3)CC2)=C(c2ccc(Cl)cc2)C1 [Venetoclax] + Cc1cc2ncnn2cc1Nc1ncc2c(n1)n(C1CCOCC1)c(=O)n2C [AZD7648] (first compound max 1 µM, 7x7, partner max 10 µM)	0.154	0.881	0.658	0.416
CC1(C)CCC(CN2CCN(c3ccc(C(=O)NS(=O)(=O)c4ccc(NCC5CCOCC5)c([N+](=O)[O-])c4)c(Oc4cnc5[nH]ccc5c4)c3)CC2)=C(c2ccc(Cl)cc2)C1 [Venetoclax] + Cn1cnc2c(F)c(Nc3ccc(Br)cc3Cl)c(C(=O)NOCCO)cc21 [Selumetinib] (first compound max 1 µM, 7x7, partner max 3 µM)	0.174	0.97	0.679	0.413
